# Test results as given in patent publication US11426441B2, “Composition comprising protein phosphatase 1 inhibitory peptide for treating vascular diseases” (BethphaGen Inc., priority 2016, dated 2022).
# No end group written: not given here.
# Experiments:
# [1] = test system: interaction of PP1 and Akt; test: PP1 immunoprecipitation of pulmonary tissue lysate; type: binding; conditions: ψPLB-SE added upon the precipitation
# Description: FIGS. 16a, 16b and 16c. (16a-16b) PAECs were treated with 3 μM ψPLB-SE for 1 hour, and protein expression was quantitatively analyzed through western blotting using antibodies against Phospho-eNOS (ser1177), total eNOS, phospho-Akt (Ser473, Thr308), total Akt, and GAPDH. (16c) The pulmonary tissue lysate was subjected to immunoprecipitation using PP1 antibody to investigate the interactions of PP1 with eNOS and Akt depending on the presence or absence of the treatment with ψPLB-SE using respective antibodies therefor.
# In order to intensively investigate the interactions of PP1 with eNOS and Akt, the pulmonary tissue lysate was subjected to immunoprecipitation using an antibody against PP1, and the effects of ψPLB-SE on the interactions were investigated by adding ψPLB-SE upon the precipitation. […] The activation of eNOS through the inhibition of the interaction between PP1 and Akt was supplemented through the experiments on the inhibition of the high-order kinase of Akt. The phosphorylation increases of Akt and eNOS due to the inhibition of dephosphorylation were investigated by offsetting the phosphorylation conditions of Akt through the treatment with LY294002, which is an inhibitor of phosphoinositide-3-kinase (PI3K), a known high-order kinase of Akt, at a concentration of 50 μM, followed by ψPLB-SE treatment. […]
# RASMCs = test: In vitro cell scratch assay (RASMC migration); type: cell-based, rat; conditions: 3 μM peptide
# Description: RASMCs isolated from the thoracic aorta were cultured in DMEM supplemented with 0.1% (v/v) FBS (Contractile) or in DMEM supplemented with 10% (v/v) FBS (Synthetic) in the presence of 3 μM of control peptide (Con; SEQ ID NO: 23) or ψPLB-SE peptide (SEQ ID NO: 2). Alternatively, RASMC cultured in DMEM supplemented with 0.1% (v/v) FBS were treated with 10 ng/ml of PDGF-BB (R&D Systems) (Synthetic) in the presence of 3 μM control or ψPLB-SE peptide. A region of the RASMC layer was removed by scratching the plate with a sterile 200 μL pipette tip. The cells were incubated for 12 hours or 24 hours and then observed under an 1×80 microscope (Olympus). The distance traveled by the cells was measured using MetaMorph software.
# [2] = test system: balloon-injured rat carotid arteries; test: Balloon-induced injury of rat carotid artery; type: in vivo
# Description: The left common carotid artery was injured by an infiltration of 2F Fogarty balloon embolectomy catheter. In brief, the rats were anesthetized with isoflurane gas (70% N2O/30% O2), the left external carotid artery was exposed, and branches thereof were electro-coagulated. A catheter was inserted approximately 1 cm into the external carotid artery via a transverse arteriotomy, and endothelial denudation was achieved by three passes of the catheter along the common carotid artery. After removal of the catheter, the penetrated area was clamped, and 5 μg of the peptides solubilized in 200 μL of phosphate-buffered saline (PBS) was injected. After incubation for 15 minutes, the sealed carotid artery was re-opened to resume blood flow. The rats were allowed to recover for 10 days, unless otherwise stated. For histological analyses, the rats were anesthetized, and the common carotid artery was excised after transcardiac perfusion with heparinized saline containing 3.7% (w/v) formaldehyde. The specimens were embedded in paraffin, and paraffin blocks were sectioned with the Leica RM2255 rotary microtome. Two serial tissue sections (thickness, 4 μm) were obtained from the centre of the common carotid artery and stained with haematoxylin and eosin. The lamina, internal elastic lamina, and external elastic lamina were measured with the National Institutes of Health ImageJ software (version 1.62). The intimal and medial areas were determined by subtracting the laminal area from the internal elastic laminal area and by subtracting the internal elastic laminal area from the external elastic laminal area, respectively. The values from two serial sections per rat were averaged for analysis.
# The carotid artery was fixed in 4% (w/v) paraformaldehyde for 48 hours at room temperature and then washed with PBS. After embedding the specimens in paraffin and sectioning the tissue blocks, the sections were treated with hydrogen peroxide to quench endogenous peroxidase activity, followed by boiling in antigen retrieval buffer. […]
sequence,measurement,setting,value
"RAETIEMPQ (not fully specified) [ψPLB-SE, 9-mer PP1 decoy peptide mimicking phosphorylated PLB; conjugated via GGG linker to cell penetrating peptide dNP2 or TAT]",interaction of Akt with PP1 (immunoprecipitation),[1],attenuated
same,increased migratory activity of RASMCs,RASMCs; synthetic conditions (10% FBS),inhibited
same,increased migratory activity of RASMCs,RASMCs; treatment with PDGF-BB 10 ng/ml,inhibited
same,"in vivo VSMC proliferation (α-SMA, PCNA immunostaining)","[2]; balloon-injured rat carotid artery, peptide administered to the injured site",inhibits
same,neointimal formation (haematoxylin and eosin staining),"[2]; balloon-injured rat carotid artery, peptide administered to the injured site, compared with control peptide",inhibited
same,reduction of SERCA2a level by balloon angioplasty-mediated injury (immunostaining),[2]; carotid artery sections,inhibited
